# Test results reported in PubChem BioAssay AID212 (DTP/NCI, 2004).
# “And” between values parts separate entries of the source, which are not always exact repeats. Equal values may be shown once. Inconclusive results are not listed.
# Tested on: BDF1 mice, colon carcinoma 38 sc, T/C %
# Experiment: NCI In Vivo Anticancer Drug Screen. Data for tumor model Colon Carcinoma 38 (subcutaneous) in B6D2F1 (BDF1) mice
# Procedure, shortened: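 T/C readout: treated group (T) measurement over vehicle control group (C) measurement. Endpoint is survival or tumor size in mice bearing a transplanted tumor.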
# [1] = endpoint: median tumor weight (est.), dose: 2.0 mg/kg/injection, schedule: Q07DX002 (ip), vehicle: saline, higher = larger tumour
# [2] = endpoint: median tumor weight (est.), dose: 8.0 mg/kg/injection, schedule: Q07DX002 (ip), vehicle: saline, higher = larger tumour
# [3] = endpoint: median tumor weight (est.), dose: 6.25 mg/kg/injection, schedule: Q07DX002 (ip), vehicle: Klucel (hydroxypropylcellulose) (HPC), higher = larger tumour
# [4] = endpoint: median tumor weight (est.), dose: 12.5 mg/kg/injection, schedule: Q07DX002 (ip), vehicle: Klucel (hydroxypropylcellulose) (HPC), higher = larger tumour
# [5] = endpoint: median tumor weight (est.), dose: 25.0 mg/kg/injection, schedule: Q07DX002 (ip), vehicle: Klucel (hydroxypropylcellulose) (HPC), higher = larger tumour
# [6] = endpoint: median tumor weight (est.), dose: 50.0 mg/kg/injection, schedule: Q07DX002 (ip), vehicle: Klucel (hydroxypropylcellulose) (HPC), higher = larger tumour
# [7] = endpoint: median tumor weight (est.), dose: 100.0 mg/kg/injection, schedule: Q07DX002 (ip), vehicle: Klucel (hydroxypropylcellulose) (HPC), higher = larger tumour
# [8] = endpoint: median tumor weight (est.), dose: 200.0 mg/kg/injection, schedule: Q07DX002 (ip), vehicle: Klucel (hydroxypropylcellulose) (HPC), higher = larger tumour
smiles,measurement,setting,value
OC(C1CO1)C(O)C1CO1 (centres undefined),T/C,"endpoint: median tumor weight (est.), dose: 1.0 mg/kg/injection, schedule: Q07DX002 (ip), vehicle: saline, higher = larger tumour",83 % of control
same,T/C,"endpoint: median tumor weight (est.), dose: 1.0 mg/kg/injection, schedule: Q07DX003 (ip), vehicle: saline, higher = larger tumour",71 % of control and 81 % of control
same,T/C,[1],114 % of control
same,T/C,"endpoint: median tumor weight (est.), dose: 2.0 mg/kg/injection, schedule: Q07DX003 (ip), vehicle: saline, higher = larger tumour",70 % of control and 86 % of control
same,T/C,"endpoint: median tumor weight (est.), dose: 4.0 mg/kg/injection, schedule: Q07DX003 (ip), vehicle: saline, higher = larger tumour",5 % of control and 30 % of control
same,T/C,[2],58 % of control
same,T/C,"endpoint: median tumor weight (est.), dose: 8.0 mg/kg/injection, schedule: Q07DX003 (ip), vehicle: saline, higher = larger tumour",8 % of control and 20 % of control
COc1ccc(Cl)[n+]([O-])n1,T/C,[3],83 % of control
same,T/C,[4],87 % of control
same,T/C,[5],89 % of control
same,T/C,[6],81 % of control
same,T/C,[7],90 % of control
Cc1cc(=O)n2c3c(c4c(cc13)c(CN(C)C)cc(=O)n4C)OC2,T/C,"endpoint: median tumor weight (est.), dose: 25.0 mg/kg/injection, schedule: Q07DX002 (ip), vehicle: saline with Tween-80, higher = larger tumour",73 % of control
same,T/C,"endpoint: median tumor weight (est.), dose: 50.0 mg/kg/injection, schedule: Q07DX002 (ip), vehicle: saline with Tween-80, higher = larger tumour",56 % of control
same,T/C,"endpoint: median tumor weight (est.), dose: 100.0 mg/kg/injection, schedule: Q07DX002 (ip), vehicle: saline with Tween-80, higher = larger tumour",45 % of control
CCOC(=O)CNC(=O)Sc1ccc(C(C)(C)C)cc1,T/C,[5],117 % of control and 97 % of control
same,T/C,[7],111 % of control and 95 % of control
same,T/C,[8],78 % of control and 81 % of control
same,T/C,"endpoint: median tumor weight (est.), dose: 400.0 mg/kg/injection, schedule: Q07DX002 (ip), vehicle: Klucel (hydroxypropylcellulose) (HPC), higher = larger tumour",78 % of control and 102 % of control
same,T/C,"endpoint: median tumor weight (est.), dose: 800.0 mg/kg/injection, schedule: Q07DX002 (ip), vehicle: Klucel (hydroxypropylcellulose) (HPC), higher = larger tumour",54 % of control
C=C1C(=O)O[C@H]2/C=C(/C)C3=CC(=O)[C@@](C)(C[C@@H](OC(=O)/C(C)=C\C)C12)O3 (some centres undefined),T/C,"endpoint: median tumor weight (est.), dose: 3.12 mg/kg/injection, schedule: Q07DX002 (ip), vehicle: Klucel (hydroxypropylcellulose) (HPC), higher = larger tumour",63 % of control
same,T/C,[3],95 % of control
same,T/C,[4],58 % of control
same,T/C,[5],79 % of control
COc1ccc2c(c1)CCC(c1ccccc1)=C2c1ccc(OCCN2CCCC2)cc1,T/C,[4],68 % of control and 85 % of control
same,T/C,[5],83 % of control and 87 % of control
same,T/C,[6],70 % of control
same,T/C,[7],77 % of control and 79 % of control
same,T/C,[8],100 % of control
C[C@H](N)C(=O)N[C@@H]1[C@H]2C(=C(O)C[C@@H](O)[C@@H]2O)C(=O)O[C@@H]1C,T/C,"endpoint: median tumor weight (est.), dose: 150.0 mg/kg/injection, schedule: Q07DX002 (ip), vehicle: saline, higher = larger tumour",65 % of control
same,T/C,"endpoint: median tumor weight (est.), dose: 300.0 mg/kg/injection, schedule: Q07DX002 (ip), vehicle: saline, higher = larger tumour",96 % of control
same,T/C,"endpoint: median tumor weight (est.), dose: 1200.0 mg/kg/injection, schedule: Q07DX002 (ip), vehicle: saline, higher = larger tumour",90 % of control
same,T/C,"endpoint: median tumor weight (est.), dose: 2400.0 mg/kg/injection, schedule: Q07DX002 (ip), vehicle: saline, higher = larger tumour",96 % of control
CS(=O)(=O)OCCCCOS(C)(=O)=O,T/C,"endpoint: median tumor weight (est.), dose: 32.0 mg/kg/injection, schedule: Q01DX005 (ip), vehicle: saline with Tween-80, higher = larger tumour",15 % of control
O=C1C(NCC(O)CO)=C(N2CC2)C(=O)C(NCC(O)CO)=C1N1CC1 (centres undefined),T/C,[1],105 % of control
same,T/C,"endpoint: median tumor weight (est.), dose: 4.0 mg/kg/injection, schedule: Q07DX002 (ip), vehicle: saline, higher = larger tumour",60 % of control
same,T/C,"endpoint: median tumor weight (est.), dose: 4.0 mg/kg/injection, schedule: Q07DX002 (ip), vehicle: suspension in saline, higher = larger tumour",66 % of control
same,T/C,[2],77 % of control
same,T/C,"endpoint: median tumor weight (est.), dose: 8.0 mg/kg/injection, schedule: Q07DX002 (ip), vehicle: suspension in saline, higher = larger tumour",100 % of control
same,T/C,"endpoint: median tumor weight (est.), dose: 16.0 mg/kg/injection, schedule: Q07DX002 (ip), vehicle: saline, higher = larger tumour",12 % of control
same,T/C,"endpoint: median tumor weight (est.), dose: 16.0 mg/kg/injection, schedule: Q07DX002 (ip), vehicle: suspension in saline, higher = larger tumour",69 % of control
COc1cccc2c1C(=O)c1c(O)c3c(c(O)c1C2=O)C[C@@](O)(C(C)=O)C[C@@H]3OC1CC(N(C)C)C(O)C(C)O1 (some centres undefined),T/C,"endpoint: median survival time, dose: 6.4 mg/kg/injection, schedule: Q07DX002 (iv), vehicle: saline, higher = longer survival",96 % of control
same,T/C,"endpoint: median survival time, dose: 10.0 mg/kg/injection, schedule: Q07DX002 (iv), vehicle: saline, higher = longer survival",105 % of control
same,T/C,"endpoint: median tumor weight (est.), dose: 2.25 mg/kg/injection, schedule: Q07DX002 (ip), vehicle: saline, higher = larger tumour",75 % of control and 89 % of control
